The test system of assay [1] is cloned mammalian (mSlo or hSlo) BK channel. Nature of the assay: Assay for BK channel openers: two-electrode voltage clamp of BK-mediated outward current in Xenopus oocytes. In kind it is cell-based. Conditions: percent increase over BK current in controls, voltage step to +140 mV, IBTX-sensitive current. The method, then:
The ability of the compounds of the invention to open BK channels and increase whole-cell outward (K^+) BK-mediated currents was assessed under voltage-clamp conditions by determining their ability to increase cloned mammalian (mSlo or hSlo) BK-mediated outward current heterologously expressed in Xenopus oocytes [Butler, A., et al., Science 1993, 261, 221–224; Dworetzky, S. I., et al., Mol. Brain Res. 1994, 27, 189–193; Gribkoff, V. K., et al., Mol. Pharmacol. 1996, 50, 206–217]. The two BK constructs employed represent nearly structurally identical homologous proteins, and have proven to be pharmacologically indistinguishable in our tests. To isolate BK current from native (background, non-BK) current, the specific and potent BK channel-blocking toxin iberiotoxin (IBTX) [Galvez, A., et al., J. Biol. Chem. 1990, 265, 11083–11090] was employed at a supramaximal concentration, e.g., 50–100 nanomolar (“nM”). The relative contribution of BK channel-mediated current to total outward current was determined by subtraction of the current remaining in the presence of IBTX (non-BK current) from the current profiles obtained in all other experimental conditions (control, drug, and wash) [Gribkoff, V. K. et al., Mol. Pharmacol. 1996, 50, 206–217]. […] All compounds were tested in 5–10 oocytes and are reported at the indicated concentration of 20 micromolar (“μM”) (or as otherwise indicated); the effect of the selected compounds of the invention on BK current was expressed as the percent of control IBTX-sensitive current at a single transmembrane voltage (+140 mV) and is listed in Table 1. Recordings were accomplished using standard two-electrode voltage clamp techniques [Stuhmer, W., et al., Methods in Enzymology, 1992, 207, 319–339]; voltage-clamp protocols consisted of 500–750 milliseconds (“ms”) duration step depolarizations, from a holding potential of −60 mV, to a final voltage up to +140 mV in 20 mV steps. The experimental media (modified Barth's solution) consisted of millimolar (“mM”): NaCl (88), NaHCO3 (2.4), KCl (1.0), HEPES (10), MgSO4 (0.82), Ca(NO3)2 (0.33), CaCl2 (0.41); pH 7.5.
(In general: Two-electrode voltage clamp is typically applied to oocytes expressing channels or transporters.)

Assay [2] has as its system rabbit corpus cavernosum tissue. Nature of the assay: Relaxation of rabbit corpus cavernosum strips precontracted with phenylephrine. Conditions: Oryctolagus cuniculus; inhibition of phenylephrine (3 μM)-induced force as compared to vehicle control; read-out: % Inhibition of force (RCC strips). The method, then:
The ability of the compounds of the invention to relax rabbit corpus cavernosum tissue as a model for the treatment of erectile dysfunction is described as follows. New Zealand white rabbits (3.4–3.7 kg) were euthanized by sodium pentobarbital (100 mg/kg) overdose. The penis from each animal was rapidly removed and immersed in a cold oxygenated modified Krebs Henseleit bicarbonate buffer. The penis' outer tunica was removed and the corpus cavernosum smooth muscle obtained and cut into strips approximately 3–5 mm long. The strips were suspended in tissue baths containing physiological salt solution (see above), and allowed to equilibrate for at least one hour under resting tension of 1.0 gram. Isometric force was measured as described above. Tissue strips were stimulated with the α-agonist phenylephrine (3 μM) and allowed to reach a steady level of force prior to the addition of test compounds. The results are expressed as the percentage inhibition of phenylephrine-induced force as compared to vehicle control.

Assay [3] deals with rat small intestine tissue. The experiment in a line: Relaxation of rat small intestine (ileum) segments. The arrangement: concentration or dose not given beside the values. To be noted: integral of nifedipine-sensitive force, 30 min post-compound addition. The text has this: The ability of the compounds of the invention to relax rat small intestine tissue as a model for the treatment of irritable bowel syndrome is described as follows. Male rats (Harlan, Sprague Dawley, 250–350 g) were sacrificed by decapitation. A portion of small intestine (ileum) was removed and the attached connective tissues and intestinal contents removed. The ileum was cut into segments of ≦1 cm in length. The segments were mounted longitudinally between fixed hooks in organ baths containing warm (37° C.) physiological salt solution (composition in mM: NaCl 118.4, KCl 4.7, KH2PO4 1.2, MgSO4 1.2, CaCl2 1.8, Glucose 10.1, NaHCO3 25; gassed with 95% O2/5% CO2, pH 7.4). A stable tension of ˜1.5 g was maintained in the tissue segments during the equilibration period of 45 minutes. Changes in muscle tension were measured with isometric force transducers (Grass, FT-03C) and recorded using AcqKnowledge data acquisition system (AcqKnowledge for MP100WS, Biopac Systems Inc., Goleta, Calif.). Compound or vehicle was added in the baths for 30 minutes. “Zero” active force was established at the end of the experiment using nifedipine (20 μM). The effects of compounds or vehicle on force was determined by measuring the integral of nifedipine-sensitive force (including resting tone and spontaneous contractions) pre- and 30 min post-compound (or vehicle) addition. Results are expressed as the percentage inhibition of force. DMSO vehicle inhibited force (integral) by −0.6±3.0% (n=25).

A word on the inhibition: it is the relative decrease from the control value, in per cent.

Turning to `O=C(CCN1CCC(N2CCCCC2)CC1)Nc1ccc(Sc2c(-c3cc(Cl)ccc3O)c3cc(C(F)(F)F)ccc3[nH]c2=O)cc1` [Example 13, N-[4-[[4-(5-chloro-2-hydroxyphenyl)-1,2-dihydro-2-oxo-6-(trifluoromethyl)-3-quinolinyl]thio]phenyl]-[1,4′-bipiperidine]-1′-propanamide], the “% MaxiK opening” value in assay [1] (at 20 μM) turned out to be 255%. Moreover, the inhibition in assay [2] was found to be 23%. In addition, the “% Inhibition of force (RSI strips)” value in assay [3] was found to be 78%.
For the molecule `O=C(CCN1CCN(c2ccccn2)CC1)Nc1ccc(Sc2c(-c3cc(Cl)ccc3O)c3cc(C(F)(F)F)ccc3[nH]c2=O)cc1` [Example 14, N-[4-[[4-(5-chloro-2-hydroxyphenyl)-1,2-dihydro-2-oxo-6-(trifluoromethyl)-3-quinolinyl]thio]phenyl]-4-(2-pyridinyl)-1-piperazinepropanamide], the “% MaxiK opening” value in assay [1] (at 1 μM) is 169^⋄ %. The inhibition in assay [2] is 37%. For the same molecule, the “% Inhibition of force (RSI strips)” value in assay [3] was 24%.

The values above are taken from US7132542B2, “Compounds for the treatment of male erectile dysfunction” (Bristol-Myers Squibb Company, priority 2003, dated 2006).
